From ChEMBL document CHEMBL4017512 (J Med Chem, 2017)

What was measured:
[1] = system: HCT-116; test: Antiproliferative activity against human HCT116 cells after 72 hrs by phosphatase assay; format: functional, cell-based; conditions: HCT-116, 72 h
[2] = Cytotoxicity against human HCT116/VM46 cells assessed as reduction in cell viability after 72 hrs by phosphatase assay; format: cell-based; conditions: HCT-116/VM46, 72 h
[3] = system: L1210; test: Antiproliferative activity against mouse L1210 cells after 72 hrs by phosphatase assay; format: functional, cell-based; conditions: L1210, 72 h

CCOc1ccc(C(=O)N[C@@]2(CC)C[C@H]3CN(CCc4c([nH]c5ccccc45)[C@@](C(=O)OC)(c4cc5c(cc4OC)N(C)[C@H]4[C@@](O)(C(=O)OC)[C@H](OC(C)=O)[C@]6(CC)C=CCN7CC[C@]54[C@@H]76)C3)C2)cc1Cl
IC50 [1]: 6.1 nM | IC50 [2]: 40 nM | IC50 [3]: 4.2 nM

CC[C@]1(NC(=O)c2cccc(C)c2)C[C@H]2CN(CCc3c([nH]c4ccccc34)[C@@](C(=O)OC)(c3cc4c(cc3OC)N(C)[C@H]3[C@@](O)(C(=O)OC)[C@H](OC(C)=O)[C@]5(CC)C=CCN6CC[C@]43[C@@H]65)C2)C1
IC50 [1]: 0.7 nM | IC50 [2]: 3 nM | IC50 [3]: 0.5 nM

CC[C@]1(NC(=O)c2ccc3cccnc3c2)C[C@H]2CN(CCc3c([nH]c4ccccc34)[C@@](C(=O)OC)(c3cc4c(cc3OC)N(C)[C@H]3[C@@](O)(C(=O)OC)[C@H](OC(C)=O)[C@]5(CC)C=CCN6CC[C@]43[C@@H]65)C2)C1
IC50 [1]: 0.7 nM | IC50 [2]: 8.2 nM | IC50 [3]: 0.6 nM

CC[C@]1(NC(=O)c2ccc(NC(=O)OC(C)(C)C)c(C)c2)C[C@H]2CN(CCc3c([nH]c4ccccc34)[C@@](C(=O)OC)(c3cc4c(cc3OC)N(C)[C@H]3[C@@](O)(C(=O)OC)[C@H](OC(C)=O)[C@]5(CC)C=CCN6CC[C@]43[C@@H]65)C2)C1
IC50 [1]: 5.8 nM | IC50 [2]: 30 nM | IC50 [3]: 5.6 nM

CC[C@]1(NC(=O)c2ccc(N(C)C(=O)OC(C)(C)C)cc2)C[C@H]2CN(CCc3c([nH]c4ccccc34)[C@@](C(=O)OC)(c3cc4c(cc3OC)N(C)[C@H]3[C@@](O)(C(=O)OC)[C@H](OC(C)=O)[C@]5(CC)C=CCN6CC[C@]43[C@@H]65)C2)C1
IC50 [1]: 3.9 nM | IC50 [2]: 35 nM | IC50 [3]: 4.1 nM

CCc1cc(CC)cc(C(=O)N[C@@]2(CC)C[C@H]3CN(CCc4c([nH]c5ccccc45)[C@@](C(=O)OC)(c4cc5c(cc4OC)N(C)[C@H]4[C@@](O)(C(=O)OC)[C@H](OC(C)=O)[C@]6(CC)C=CCN7CC[C@]54[C@@H]76)C3)C2)c1
IC50 [1]: 6.4 nM | IC50 [2]: 66 nM | IC50 [3]: 4.2 nM

CC[C@]1(NC(=O)c2ccc3c(c2)CCCCC3)C[C@H]2CN(CCc3c([nH]c4ccccc34)[C@@](C(=O)OC)(c3cc4c(cc3OC)N(C)[C@H]3[C@@](O)(C(=O)OC)[C@H](OC(C)=O)[C@]5(CC)C=CCN6CC[C@]43[C@@H]65)C2)C1
IC50 [1]: 4.8 nM | IC50 [2]: 35 nM | IC50 [3]: 6.1 nM

CC[C@]1(NC(=O)c2ccc(SC(C)C)cc2)C[C@H]2CN(CCc3c([nH]c4ccccc34)[C@@](C(=O)OC)(c3cc4c(cc3OC)N(C)[C@H]3[C@@](O)(C(=O)OC)[C@H](OC(C)=O)[C@]5(CC)C=CCN6CC[C@]43[C@@H]65)C2)C1
IC50 [1]: 4.6 nM | IC50 [2]: 55 nM | IC50 [3]: 4.3 nM

CC[C@]1(NC(=O)c2ccsc2)C[C@H]2CN(CCc3c([nH]c4ccccc34)[C@@](C(=O)OC)(c3cc4c(cc3OC)N(C)[C@H]3[C@@](O)(C(=O)OC)[C@H](OC(C)=O)[C@]5(CC)C=CCN6CC[C@]43[C@@H]65)C2)C1
IC50 [1]: 0.7 nM | IC50 [2]: 7.7 nM | IC50 [3]: 0.5 nM

CC[C@]1(NC(=O)c2ccc(C#N)c(C)c2)C[C@H]2CN(CCc3c([nH]c4ccccc34)[C@@](C(=O)OC)(c3cc4c(cc3OC)N(C)[C@H]3[C@@](O)(C(=O)OC)[C@H](OC(C)=O)[C@]5(CC)C=CCN6CC[C@]43[C@@H]65)C2)C1
IC50 [1]: 6.2 nM | IC50 [2]: 65 nM | IC50 [3]: 4.8 nM

CC[C@]1(NC(=O)c2cnco2)C[C@H]2CN(CCc3c([nH]c4ccccc34)[C@@](C(=O)OC)(c3cc4c(cc3OC)N(C)[C@H]3[C@@](O)(C(=O)OC)[C@H](OC(C)=O)[C@]5(CC)C=CCN6CC[C@]43[C@@H]65)C2)C1
IC50 [1]: 3.5 nM | IC50 [2]: 65 nM | IC50 [3]: 3.9 nM

CC[C@]1(NC(=O)c2cccc(F)c2)C[C@H]2CN(CCc3c([nH]c4ccccc34)[C@@](C(=O)OC)(c3cc4c(cc3OC)N(C)[C@H]3[C@@](O)(C(=O)OC)[C@H](OC(C)=O)[C@]5(CC)C=CCN6CC[C@]43[C@@H]65)C2)C1
IC50 [1]: 5.3 nM | IC50 [2]: 25 nM | IC50 [3]: 5.7 nM

CC[C@]1(NC(=O)c2ccc(CC(C)C)cc2)C[C@H]2CN(CCc3c([nH]c4ccccc34)[C@@](C(=O)OC)(c3cc4c(cc3OC)N(C)[C@H]3[C@@](O)(C(=O)OC)[C@H](OC(C)=O)[C@]5(CC)C=CCN6CC[C@]43[C@@H]65)C2)C1
IC50 [1]: 10 nM | IC50 [2]: 65 nM | IC50 [3]: 25 nM

CC[C@]1(NC(=O)c2ccc(OC)cc2F)C[C@H]2CN(CCc3c([nH]c4ccccc34)[C@@](C(=O)OC)(c3cc4c(cc3OC)N(C)[C@H]3[C@@](O)(C(=O)OC)[C@H](OC(C)=O)[C@]5(CC)C=CCN6CC[C@]43[C@@H]65)C2)C1
IC50 [1]: 6.4 nM | IC50 [2]: 70 nM | IC50 [3]: 6.2 nM

CC[C@]1(NC(=O)c2ccc(NC(C)=O)cc2)C[C@H]2CN(CCc3c([nH]c4ccccc34)[C@@](C(=O)OC)(c3cc4c(cc3OC)N(C)[C@H]3[C@@](O)(C(=O)OC)[C@H](OC(C)=O)[C@]5(CC)C=CCN6CC[C@]43[C@@H]65)C2)C1
IC50 [1]: 0.8 nM | IC50 [2]: 55 nM | IC50 [3]: 1.6 nM

CC[C@]1(NC(=O)c2cc(C)c(OCc3ccccc3)c(C)c2)C[C@H]2CN(CCc3c([nH]c4ccccc34)[C@@](C(=O)OC)(c3cc4c(cc3OC)N(C)[C@H]3[C@@](O)(C(=O)OC)[C@H](OC(C)=O)[C@]5(CC)C=CCN6CC[C@]43[C@@H]65)C2)C1
IC50 [1]: 30 nM | IC50 [2]: 80 nM | IC50 [3]: 30 nM

CC[C@]1(NS(=O)(=O)c2cccc([N+](=O)[O-])c2)C[C@H]2CN(CCc3c([nH]c4ccccc34)[C@@](C(=O)OC)(c3cc4c(cc3OC)N(C)[C@H]3[C@@](O)(C(=O)OC)[C@H](OC(C)=O)[C@]5(CC)C=CCN6CC[C@]43[C@@H]65)C2)C1
IC50 [1]: 490 nM | IC50 [2]: 430 nM | IC50 [3]: 450 nM

CC[C@]1(NC(=O)c2ccc3c(c2)ncn3C)C[C@H]2CN(CCc3c([nH]c4ccccc34)[C@@](C(=O)OC)(c3cc4c(cc3OC)N(C)[C@H]3[C@@](O)(C(=O)OC)[C@H](OC(C)=O)[C@]5(CC)C=CCN6CC[C@]43[C@@H]65)C2)C1
IC50 [1]: 0.6 nM | IC50 [2]: 8 nM | IC50 [3]: 0.7 nM

CCSc1ccc(C(=O)N[C@@]2(CC)C[C@H]3CN(CCc4c([nH]c5ccccc45)[C@@](C(=O)OC)(c4cc5c(cc4OC)N(C)[C@H]4[C@@](O)(C(=O)OC)[C@H](OC(C)=O)[C@]6(CC)C=CCN7CC[C@]54[C@@H]76)C3)C2)cc1
IC50 [1]: 6.1 nM | IC50 [2]: 35 nM | IC50 [3]: 4.9 nM

CC[C@]1(NC(=O)c2ccc3cc(OC)ccc3c2)C[C@H]2CN(CCc3c([nH]c4ccccc34)[C@@](C(=O)OC)(c3cc4c(cc3OC)N(C)[C@H]3[C@@](O)(C(=O)OC)[C@H](OC(C)=O)[C@]5(CC)C=CCN6CC[C@]43[C@@H]65)C2)C1
IC50 [1]: 3.5 nM | IC50 [2]: 20 nM | IC50 [3]: 2.5 nM

CC[C@]1(NC(=O)c2ccc3cnccc3c2)C[C@H]2CN(CCc3c([nH]c4ccccc34)[C@@](C(=O)OC)(c3cc4c(cc3OC)N(C)[C@H]3[C@@](O)(C(=O)OC)[C@H](OC(C)=O)[C@]5(CC)C=CCN6CC[C@]43[C@@H]65)C2)C1
IC50 [1]: 0.6 nM | IC50 [2]: 7.3 nM | IC50 [3]: 0.6 nM

CC[C@]1(NC(=O)c2ccc3ncsc3c2)C[C@H]2CN(CCc3c([nH]c4ccccc34)[C@@](C(=O)OC)(c3cc4c(cc3OC)N(C)[C@H]3[C@@](O)(C(=O)OC)[C@H](OC(C)=O)[C@]5(CC)C=CCN6CC[C@]43[C@@H]65)C2)C1
IC50 [1]: 0.6 nM | IC50 [2]: 20 nM | IC50 [3]: 0.5 nM

CC[C@]1(NC(=O)c2cc(C)cc(C)c2)C[C@H]2CN(CCc3c([nH]c4ccccc34)[C@@](C(=O)OC)(c3cc4c(cc3OC)N(C)[C@H]3[C@@](O)(C(=O)OC)[C@H](OC(C)=O)[C@]5(CC)C=CCN6CC[C@]43[C@@H]65)C2)C1
IC50 [1]: 6 nM | IC50 [2]: 9.2 nM | IC50 [3]: 5.4 nM

CC[C@]1(NC(=O)c2ccc3cc(NC(=O)OC(C)(C)C)ccc3c2)C[C@H]2CN(CCc3c([nH]c4ccccc34)[C@@](C(=O)OC)(c3cc4c(cc3OC)N(C)[C@H]3[C@@](O)(C(=O)OC)[C@H](OC(C)=O)[C@]5(CC)C=CCN6CC[C@]43[C@@H]65)C2)C1
IC50 [1]: 6.5 nM | IC50 [2]: 60 nM | IC50 [3]: 5 nM

CC[C@]1(NC(=O)c2ccc(OC)c(Cl)c2)C[C@H]2CN(CCc3c([nH]c4ccccc34)[C@@](C(=O)OC)(c3cc4c(cc3OC)N(C)[C@H]3[C@@](O)(C(=O)OC)[C@H](OC(C)=O)[C@]5(CC)C=CCN6CC[C@]43[C@@H]65)C2)C1
IC50 [1]: 5.1 nM | IC50 [2]: 8.9 nM | IC50 [3]: 3.7 nM

CC[C@]1(NC(=O)c2ccc(OC(F)F)cc2)C[C@H]2CN(CCc3c([nH]c4ccccc34)[C@@](C(=O)OC)(c3cc4c(cc3OC)N(C)[C@H]3[C@@](O)(C(=O)OC)[C@H](OC(C)=O)[C@]5(CC)C=CCN6CC[C@]43[C@@H]65)C2)C1
IC50 [1]: 1.7 nM | IC50 [2]: 17 nM | IC50 [3]: 5.9 nM

CC[C@]1(NC(=O)c2coc3ccccc23)C[C@H]2CN(CCc3c([nH]c4ccccc34)[C@@](C(=O)OC)(c3cc4c(cc3OC)N(C)[C@H]3[C@@](O)(C(=O)OC)[C@H](OC(C)=O)[C@]5(CC)C=CCN6CC[C@]43[C@@H]65)C2)C1
IC50 [1]: 4.6 nM | IC50 [2]: 35 nM | IC50 [3]: 4 nM

CC[C@]1(NC(=O)c2cncn2C)C[C@H]2CN(CCc3c([nH]c4ccccc34)[C@@](C(=O)OC)(c3cc4c(cc3OC)N(C)[C@H]3[C@@](O)(C(=O)OC)[C@H](OC(C)=O)[C@]5(CC)C=CCN6CC[C@]43[C@@H]65)C2)C1
IC50 [1]: 2.2 nM | IC50 [2]: 80 nM | IC50 [3]: 4 nM

CC[C@]1(NC(=O)c2ccc(C)c(N)c2)C[C@H]2CN(CCc3c([nH]c4ccccc34)[C@@](C(=O)OC)(c3cc4c(cc3OC)N(C)[C@H]3[C@@](O)(C(=O)OC)[C@H](OC(C)=O)[C@]5(CC)C=CCN6CC[C@]43[C@@H]65)C2)C1
IC50 [1]: 0.7 nM | IC50 [2]: 25 nM | IC50 [3]: 0.6 nM
